Assay results from patent US11739098B2 (BRISTOL-MYERS SQUIBB COMPANY, priority 2017, dated 2023).

Tests used:
Assay type in all cases: cell-based
human TLR9 = biological target: T1, human TLR9 (Homo sapiens, UniProt Q9NR96); assay: TLR9 inhibition reporter assay (HEK-Blue cells, SEAP reporter, ODN2006 stimulation); details: HEK-Blue cells overexpressing human TLR9, SEAP reporter, ODN2006 5 nM
T1 construct: host or cells: HEK-Blue cells (HEK293-derived reporter line)
T1 sequence (Q9NR96 26-1032): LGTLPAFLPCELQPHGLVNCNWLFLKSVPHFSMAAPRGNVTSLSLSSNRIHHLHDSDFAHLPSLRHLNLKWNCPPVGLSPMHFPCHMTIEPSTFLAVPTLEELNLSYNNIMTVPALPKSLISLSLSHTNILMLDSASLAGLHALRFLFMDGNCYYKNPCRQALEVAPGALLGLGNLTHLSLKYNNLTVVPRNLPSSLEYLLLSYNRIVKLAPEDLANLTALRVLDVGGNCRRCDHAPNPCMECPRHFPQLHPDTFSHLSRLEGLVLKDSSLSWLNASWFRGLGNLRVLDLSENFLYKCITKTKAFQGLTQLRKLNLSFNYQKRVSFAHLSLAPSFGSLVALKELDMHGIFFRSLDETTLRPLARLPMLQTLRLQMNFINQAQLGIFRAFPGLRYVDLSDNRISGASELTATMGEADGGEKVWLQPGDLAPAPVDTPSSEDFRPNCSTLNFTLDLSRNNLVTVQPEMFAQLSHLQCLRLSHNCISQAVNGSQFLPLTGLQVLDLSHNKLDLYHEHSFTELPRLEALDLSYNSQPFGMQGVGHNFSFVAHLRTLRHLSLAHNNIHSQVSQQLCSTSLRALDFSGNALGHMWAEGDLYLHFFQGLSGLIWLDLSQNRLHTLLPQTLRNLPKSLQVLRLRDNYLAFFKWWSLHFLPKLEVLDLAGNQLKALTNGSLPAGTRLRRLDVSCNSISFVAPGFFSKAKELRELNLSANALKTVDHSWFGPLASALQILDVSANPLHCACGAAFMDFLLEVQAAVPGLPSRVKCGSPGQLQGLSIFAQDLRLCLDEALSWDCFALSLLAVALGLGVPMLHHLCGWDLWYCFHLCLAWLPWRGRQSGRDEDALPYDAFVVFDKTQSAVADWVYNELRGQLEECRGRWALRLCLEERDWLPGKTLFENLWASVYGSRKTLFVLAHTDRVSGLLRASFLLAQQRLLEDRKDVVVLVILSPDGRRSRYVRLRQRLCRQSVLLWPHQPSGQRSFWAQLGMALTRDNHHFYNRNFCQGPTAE
Procedure, shortened: (§1)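 HEK-Blue cells overexpressing the receptor, with NF-κB/AP-1-driven SEAP, were pre-treated 30 min at room temperature with compound (0.05 nM–50 μM), then stimulated with gardiquimod 7.5 μM (TLR7), R848 15.9 μM (TLR8) or ODN2006 5 nM (TLR9). SEAP was read after 22 h at 37 °C as percent inhibition.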

human TLR7 = biological target: T2, human TLR7 (Homo sapiens, UniProt Q9NYK1); assay: TLR7 inhibition reporter assay (HEK-Blue cells, SEAP reporter, gardiquimod stimulation); details: HEK-Blue cells overexpressing human TLR7, SEAP reporter, gardiquimod 7.5 μM
T2 construct: host or cells: HEK-Blue cells (HEK293-derived reporter line)
T2 sequence (Q9NYK1 27-1049): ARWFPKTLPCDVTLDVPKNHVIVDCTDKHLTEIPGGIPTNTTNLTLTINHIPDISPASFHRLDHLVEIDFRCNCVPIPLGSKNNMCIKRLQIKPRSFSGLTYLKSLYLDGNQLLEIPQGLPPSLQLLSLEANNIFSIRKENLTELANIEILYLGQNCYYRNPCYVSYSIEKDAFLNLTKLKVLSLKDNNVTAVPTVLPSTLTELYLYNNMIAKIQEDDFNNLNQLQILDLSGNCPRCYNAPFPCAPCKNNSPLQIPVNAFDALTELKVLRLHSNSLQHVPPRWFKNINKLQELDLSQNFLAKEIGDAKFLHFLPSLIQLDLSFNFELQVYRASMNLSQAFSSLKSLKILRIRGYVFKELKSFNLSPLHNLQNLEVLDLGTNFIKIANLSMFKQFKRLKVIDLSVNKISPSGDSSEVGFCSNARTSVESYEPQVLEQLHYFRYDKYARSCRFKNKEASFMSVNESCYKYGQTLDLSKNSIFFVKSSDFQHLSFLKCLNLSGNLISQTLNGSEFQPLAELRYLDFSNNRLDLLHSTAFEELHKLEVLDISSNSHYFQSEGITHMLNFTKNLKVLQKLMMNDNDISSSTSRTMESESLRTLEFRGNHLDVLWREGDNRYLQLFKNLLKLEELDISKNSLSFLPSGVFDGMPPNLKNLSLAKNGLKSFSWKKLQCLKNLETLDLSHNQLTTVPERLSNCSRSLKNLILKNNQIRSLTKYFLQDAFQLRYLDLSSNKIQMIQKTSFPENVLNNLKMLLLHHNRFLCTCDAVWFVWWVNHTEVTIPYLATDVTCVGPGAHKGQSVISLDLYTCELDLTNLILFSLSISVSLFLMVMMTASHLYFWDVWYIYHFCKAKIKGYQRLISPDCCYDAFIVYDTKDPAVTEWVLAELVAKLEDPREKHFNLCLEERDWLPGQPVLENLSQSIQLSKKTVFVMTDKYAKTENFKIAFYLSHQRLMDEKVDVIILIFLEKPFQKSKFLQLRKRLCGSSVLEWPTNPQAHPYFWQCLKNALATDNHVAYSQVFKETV
Procedure, shortened: as §1

human TLR8 = biological target: T3, human TLR8 (Homo sapiens, UniProt Q9NR97); assay: TLR8 inhibition reporter assay (HEK-Blue cells, SEAP reporter, R848 stimulation); details: HEK-Blue cells overexpressing human TLR8, SEAP reporter, R848 15.9 μM
T3 construct: host or cells: HEK-Blue cells (HEK293-derived reporter line)
T3 sequence (Q9NR97 27-1041): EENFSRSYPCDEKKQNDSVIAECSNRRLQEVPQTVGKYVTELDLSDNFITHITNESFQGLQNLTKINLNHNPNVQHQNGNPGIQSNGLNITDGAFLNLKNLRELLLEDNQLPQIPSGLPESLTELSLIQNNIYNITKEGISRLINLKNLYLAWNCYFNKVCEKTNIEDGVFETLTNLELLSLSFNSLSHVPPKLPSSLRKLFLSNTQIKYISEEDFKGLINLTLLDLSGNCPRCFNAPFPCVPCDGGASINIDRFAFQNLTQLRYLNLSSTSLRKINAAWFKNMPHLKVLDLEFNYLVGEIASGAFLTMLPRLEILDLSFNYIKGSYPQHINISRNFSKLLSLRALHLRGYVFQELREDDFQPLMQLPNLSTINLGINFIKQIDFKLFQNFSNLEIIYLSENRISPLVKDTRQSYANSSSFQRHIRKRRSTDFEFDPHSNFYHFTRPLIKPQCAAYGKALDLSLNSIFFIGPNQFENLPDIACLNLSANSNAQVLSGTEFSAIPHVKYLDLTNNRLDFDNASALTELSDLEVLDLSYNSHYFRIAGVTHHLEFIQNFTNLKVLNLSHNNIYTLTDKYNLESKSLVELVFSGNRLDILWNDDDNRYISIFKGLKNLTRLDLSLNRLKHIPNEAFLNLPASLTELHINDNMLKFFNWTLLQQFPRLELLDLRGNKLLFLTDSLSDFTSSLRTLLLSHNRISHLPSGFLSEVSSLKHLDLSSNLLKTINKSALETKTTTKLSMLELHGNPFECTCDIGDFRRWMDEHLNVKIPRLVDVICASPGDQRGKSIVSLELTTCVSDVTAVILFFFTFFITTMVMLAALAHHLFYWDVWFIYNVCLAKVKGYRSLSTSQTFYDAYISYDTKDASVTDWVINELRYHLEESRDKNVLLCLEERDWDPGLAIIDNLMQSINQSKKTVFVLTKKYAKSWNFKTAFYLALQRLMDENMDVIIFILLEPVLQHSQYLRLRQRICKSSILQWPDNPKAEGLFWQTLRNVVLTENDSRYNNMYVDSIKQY
Procedure, shortened: as §1

Compound	IC50 (human TLR9) [nM]	IC50 (human TLR7) [nM]	IC50 (human TLR8) [nM]
CCN(C)CC(=O)N1CCC(c2ccc3[nH]c(-c4cc(C)c5nnnn5c4)c(C(C)C)c3c2)CC1 [Example 475, 2-(ethyl(methyl)amino)-1-(4-(3-isopropyl-2-(8-methyltetrazolo[1,5-a]pyridin-6-yl)-1H-indol-5-yl)piperidin-1-yl)ethan-1-one]	1000 to 50000	< 100	< 100
CC(C)c1c(-c2ccnc3[nH]ncc23)[nH]c2ccc(C3CCN(C(=O)CCn4ccnc4)CC3)cc12 [Example 642, 3-(1H-imidazol-1-yl)-1-(4-(3-isopropyl-2-(1H-pyrazolo[3,4-b]pyridin-4-yl)-1H-indol-5-yl)piperidin-1-yl)propan-1-one]	1000 to 50000	< 100	< 100
CCOc1cc(-c2[nH]c3ccc(C4CCN(CC(=O)NC)CC4)cc3c2C(C)C)cc2ncnn12 [Example 351, 2-(4-(2-(5-ethoxy-[1,2,4]triazolo[1,5-a]pyridin-7-yl)-3-isopropyl-1H-indol-5-yl)piperidin-1-yl)-N-methylacetamide]	1000 to 50000	< 100	< 100
Cc1cc2nnnn2cc1-c1[nH]c2ccc(C3CCN(Cc4ccn(C)n4)CC3)cc2c1C(C)C [Example 887, 6-(3-isopropyl-5-(1-((1-methyl-1H-pyrazol-3-yl)methyl)piperidin-4-yl)-1H-indol-2-yl)-7-methyltetrazolo[1,5-a]pyridine]	1000 to 50000	< 100	< 100
Cc1c(-c2[nH]c3ccc(C4CCN(CC(C)(C)O)CC4)cc3c2C(C)C)nn2ncnc2c1C [Example 747, 1-(4-(2-(7,8-dimethyl-[1,2,4]triazolo[1,5-b]pyridazin-6-yl)-3-isopropyl-1H-indol-5-yl)piperidin-1-yl)-2-methylpropan-2-ol]	1000 to 50000	< 100	< 100
CNC(=O)CN1CCC(c2ccc3[nH]c(-c4ccc5c(cnn5C)c4C)c(C(C)C)c3c2)CC1 [Example 365, 2-(4-(2-(1,4-dimethyl-1H-indazol-5-yl)-3-isopropyl-1H-indol-5-yl)piperidin-1-yl)-N-methylacetamide]	> 50000	< 100	100 to 1000
Cc1nn2ccc(-c3[nH]c4ccc(C5CCNCC5)cc4c3C(C)C)cc2c1F [Example 146, 3-fluoro-5-(3-isopropyl-5-(piperidin-4-yl)-1H-indol-2-yl)-2-methylpyrazolo[1,5-a]pyridine]	> 50000	< 100	100 to 1000
CCc1c(-c2cnc3ncnn3c2)[nH]c2ccc(C3CCNCC3)cc12 [Example 26, 6-(3-ethyl-5-(piperidin-4-yl)-1H-indol-2-yl)-[1,2,4]triazolo[1,5-a]pyrimidine]	100 to 1000	100 to 1000	100 to 1000
CNCC(=O)N1CCC(c2ccc3[nH]c(-c4cc(OC)n5ncnc5c4)c(C(C)C)c3c2)CC1 [Example 553, 1-(4-(3-isopropyl-2-(5-methoxy-[1,2,4]triazolo[1,5-a]pyridin-7-yl)-1H-indol-5-yl)piperidin-1-yl)-2-(methylamino)ethan-1-one]	100 to 1000	< 100	< 100
CCc1c(-c2ccnc3c(N)noc23)[nH]c2ccc(C3CCNCC3)cc12 [Example 239, 7-(3-ethyl-5-(piperidin-4-yl)-1H-indol-2-yl)isoxazolo[4,5-b]pyridin-3-amine]	100 to 1000	1000 to 50000	100 to 1000
CNC(=O)CN1CCC(c2ccc3[nH]c(-c4ccn5nc(C)cc5c4)c(C(C)C)c3c2)CC1 [Example 322, 2-(4-(3-isopropyl-2-(2-methylpyrazolo[1,5-a]pyridin-5-yl)-1H-indol-5-yl)piperidin-1-yl)-N-methylacetamide]	1000 to 50000	100 to 1000	1000 to 50000
Cc1cn2cc(-c3[nH]c4ccc(C5CCN(C(=O)CC(C)(C)O)CC5)cc4c3C(C)C)c(C)cc2n1 [Example 597, 1-(4-(2-(2,7-dimethylimidazo[1,2-a]pyridin-6-yl)-3-isopropyl-1H-indol-5-yl)piperidin-1-yl)-3-hydroxy-3-methylbutan-1-one]	1000 to 50000	100 to 1000	> 3130
CC(C)c1c(-c2cn(C)c3ncccc23)[nH]c2ccc(C3CCN(CC(=O)N(C)C)CC3)cc12 [Example 295, 2-(4-(3-isopropyl-2-(1-methyl-1H-pyrrolo[2,3-b]pyridin-3-yl)-1H-indol-5-yl)piperidin-1-yl)-N,N-dimethylacetamide]	1000 to 50000	< 100	< 100
COc1cc(-c2[nH]c3ccc(C4CCN(CC(=O)N(C)C)CC4)cc3c2C(C)C)nn2ncnc12 [Example 283, 2-(4-(3-isopropyl-2-(8-methoxy-[1,2,4]triazolo[1,5-b]pyridazin-6-yl)-1H-indol-5-yl)piperidin-1-yl)-N,N-dimethylacetamide]	1000 to 50000	< 100	100 to 1000
